From the NIST ThermoML archive (doi:10.1016/j.tca.2010.11.002)
Numbers after ± are expanded uncertainties.

Tests used:
[1] = Liquid, Vibrating tube method
[2] = mn = molality of the nth substance listed, in mol/kg; conditions: 101 kPa, Liquid, Vibrating tube method

CN1CCCN(C)C1=O [1,3-dimethyl-3,4,5,6-tetrahydro-2(1H)-pyrimidinone]
[1], 101.33 kPa
Conditions | mass density [kg/m3]
278.15 K | 1076.18 ± 0.09
288.15 K | 1067.81 ± 0.09
298.15 K | 1059.46 ± 0.08
308.15 K | 1051.12 ± 0.08
313.15 K | 1046.95 ± 0.08
318.15 K | 1042.78 ± 0.08

CN1CCCN(C)C1=O [1,3-dimethyl-3,4,5,6-tetrahydro-2(1H)-pyrimidinone] + O
mass density [kg/m3], [2]
Conditions | 278.15 K | 288.15 K | 298.15 K | 308.15 K | 313.15 K | 318.15 K
m1 = 0.03864 | 1000.41 ± 0.04 | 999.51 ± 0.05 | 997.43 ± 0.05 | 994.38 ± 0.05 | 992.55 ± 0.05 | 990.54 ± 0.05
m1 = 0.07586 | 1000.85 ± 0.05 | 999.91 ± 0.04 | 997.79 ± 0.05 | 994.72 ± 0.05 | 992.88 ± 0.05 | 990.86 ± 0.05
m1 = 0.1037 | 1001.18 ± 0.05 | 1000.21 ± 0.05 | 998.07 ± 0.05 | 994.98 ± 0.05 | 993.12 ± 0.05 | 991.09 ± 0.05
m1 = 0.1575 | 1001.83 ± 0.05 | 1000.8 ± 0.05 | 998.61 ± 0.05 | 995.48 ± 0.05 | 993.6 ± 0.05 | 991.55 ± 0.05
m1 = 0.2215 | 1002.6 ± 0.05 | 1001.51 ± 0.05 | 999.26 ± 0.05 | 996.08 ± 0.05 | 994.18 ± 0.05 | 992.11 ± 0.05
m1 = 0.2812 | 1003.34 ± 0.05 | 1002.17 ± 0.05 | 999.87 ± 0.05 | 996.64 ± 0.05 | 994.72 ± 0.05 | 992.63 ± 0.05
m1 = 0.407 | 1004.9 ± 0.05 | 1003.6 ± 0.05 | 1001.17 ± 0.05 | 997.84 ± 0.05 | 995.87 ± 0.05 | 993.74 ± 0.05
m1 = 0.5303 | 1006.46 ± 0.05 | 1005.01 ± 0.05 | 1002.46 ± 0.05 | 999.04 ± 0.05 | 997.02 ± 0.05 | 994.85 ± 0.05
m1 = 0.6771 | 1008.32 ± 0.05 | 1006.7 ± 0.05 | 1004.01 ± 0.05 | 1000.47 ± 0.05 | 998.39 ± 0.05 | 996.17 ± 0.05
m1 = 0.8298 | 1010.25 ± 0.05 | 1008.46 ± 0.05 | 1005.62 ± 0.05 | 1001.96 ± 0.05 | 999.83 ± 0.05 | 997.56 ± 0.05
m1 = 0.9878 | 1012.23 ± 0.05 | 1010.27 ± 0.05 | 1007.28 ± 0.05 | 1003.5 ± 0.05 | 1001.31 ± 0.05 | 998.99 ± 0.05

CN1CCCN(C)C1=O [1,3-dimethyl-3,4,5,6-tetrahydro-2(1H)-pyrimidinone] + [2H]O[2H]
mass density [kg/m3], [2]
Conditions | 278.15 K | 288.15 K | 298.15 K | 308.15 K | 313.15 K | 318.15 K
m1 = 0.0599 | 1105.6 ± 0.09 | 1105.78 ± 0.09 | 1104.3 ± 0.09 | 1101.53 ± 0.09 | 1099.72 ± 0.09 | 1097.69 ± 0.09
m1 = 0.08344 | 1105.61 ± 0.09 | 1105.76 ± 0.09 | 1104.25 ± 0.09 | 1101.47 ± 0.09 | 1099.64 ± 0.09 | 1097.6 ± 0.09
m1 = 0.1212 | 1105.63 ± 0.09 | 1105.73 ± 0.09 | 1104.18 ± 0.09 | 1101.36 ± 0.09 | 1099.52 ± 0.09 | 1097.47 ± 0.09
m1 = 0.1641 | 1105.66 ± 0.09 | 1105.71 ± 0.09 | 1104.11 ± 0.09 | 1101.25 ± 0.09 | 1099.39 ± 0.09 | 1097.32 ± 0.09
m1 = 0.2214 | 1105.72 ± 0.09 | 1105.69 ± 0.09 | 1104.03 ± 0.09 | 1101.11 ± 0.09 | 1099.23 ± 0.09 | 1097.13 ± 0.09
m1 = 0.3291 | 1105.85 ± 0.09 | 1105.68 ± 0.09 | 1103.9 ± 0.09 | 1100.88 ± 0.09 | 1098.96 ± 0.09 | 1096.82 ± 0.09
m1 = 0.5024 | 1106.17 ± 0.09 | 1105.76 ± 0.09 | 1103.77 ± 0.09 | 1100.59 ± 0.09 | 1098.6 ± 0.09 | 1096.39 ± 0.09
m1 = 0.6557 | 1106.53 ± 0.09 | 1105.89 ± 0.09 | 1103.73 ± 0.09 | 1100.4 ± 0.09 | 1098.34 ± 0.09 | 1096.07 ± 0.09
m1 = 0.7789 | 1106.85 ± 0.1 | 1106.03 ± 0.09 | 1103.73 ± 0.09 | 1100.28 ± 0.09 | 1098.17 ± 0.09 | 1095.85 ± 0.09
m1 = 0.9405 | 1107.31 ± 0.1 | 1106.25 ± 0.1 | 1103.76 ± 0.09 | 1100.16 ± 0.09 | 1097.99 ± 0.09 | 1095.61 ± 0.09
m1 = 1.074 | 1107.69 ± 0.1 | 1106.44 ± 0.1 | 1103.81 ± 0.09 | 1100.09 ± 0.09 | 1097.86 ± 0.09 | 1095.43 ± 0.09

[2H]O[2H] [water-d2]
[1], 101 kPa
Conditions | mass density [kg/m3]
278.15 K | 1105.59 ± 0.09
288.15 K | 1105.85 ± 0.09
298.15 K | 1104.43 ± 0.09
308.15 K | 1101.72 ± 0.09
313.15 K | 1099.93 ± 0.09
318.15 K | 1097.92 ± 0.09

[2H]O[2H] [water-d2] + CN1CCCN(C)C1=O
[2], m2 = 0
Conditions | mass density [kg/m3]
278.15 K | 1105.59 ± 0.09
288.15 K | 1105.85 ± 0.09
298.15 K | 1104.43 ± 0.09
308.15 K | 1101.72 ± 0.09
313.15 K | 1099.93 ± 0.09
318.15 K | 1097.92 ± 0.09
